The test system of assay [1] is C. albicans (CCARM 14020, fluconazole-resistant strain). The following applies: CCARM 14020, 48 h, pH 6.
In assay [2] the test system is C. albicans (CCARM 14007, amphotericin B-resistant strain). The following applies: CCARM 14007, 48 h, pH 6.
The next assay has as its system C. albicans (KCTC 7270). As to conditions: KCTC 7270, 48 h, pH 6.
Assay [3] deals with C. albicans (CCARM 14004, fluconazole-resistant strain). The following applies: CCARM 14004, 48 h, pH 6.
For assay [4], the system named is F. graminearum (KCTC 16656). As to conditions: KCTC 16656, 48 h, pH 6.
Assay [5] relates to Aspergillus flavus (KCTC 6905). As to conditions: KCTC 6905, 48 h, pH 6.
The test system of assay [6] is Tricophyton rubrum (KCTC 6345). As to conditions: KCTC 6345, 48 h, pH 6.
The subject of assay [7] is Trichoderma viride (KCTC 16992). As to conditions: KCTC 16992, 48 h, pH 6.
Assay [8] relates to C. albicans (CCARM 14001, fluconazole-resistant strain). The following applies: CCARM 14001, 48 h, pH 6.
Another assay concerns C. krusei (CCARM 14017). The following applies: CCARM 14017, 48 h, pH 6.
Assay [9] has as its system C. gloeosporioides (KCTC 6169). The following applies: KCTC 6169, 48 h, pH 6.
Assay [10] relates to F. moniliforme (KCTC 6149). The following applies: KCTC 6149, 48 h, pH 6.
The subject of a further assay is F. solani (KCTC 6326). The following applies: KCTC 6326, 48 h, pH 6.
Assay [11] relates to Trichoderma virens (KCTC 16924). As to conditions: KCTC 16924, 48 h, pH 6.
For assay [12], the system named is F. oxysporum (KCTC 16909). The following applies: KCTC 16909, 48 h, pH 6.
In assay [13] the test system is C. parapsilosis (CCARM 14016). The following applies: CCARM 14016, 48 h, pH 6.

Usually MIC stands for the least concentration at which growth counts as inhibited. Low readings indicate greater potency, high ones weaker potency.

Converted amounts (≈) assume the structure as drawn. Residues, ends and D or L forms follow the SMILES beside them.

On to `NCCCC[C@H](NC(=O)[C@H](CCCCN)NC(=O)[C@@H](N)Cc1c[nH]cn1)C(N)=O` [(HKK)1] (H-His-Lys-Lys-NH2), for which the MIC in assay [1] was 1024 µM (≈ 420 µg/mL); in assay [2] it was 1024 µM (≈ 420 µg/mL); against C. albicans (KCTC 7270), 1024 µM (≈ 420 µg/mL); in [3], 1024 µM (≈ 420 µg/mL); in assay [4], 512 µM (≈ 210 µg/mL); in assay [5], 256 µM (≈ 105 µg/mL). The MIC in [6] was found to be 512 µM (≈ 210 µg/mL); in assay [7], 256 µM (≈ 105 µg/mL); in assay [8], 1024 µM (≈ 420 µg/mL); in the assay with C. krusei (CCARM 14017) it was 512 µM (≈ 210 µg/mL); in [9], 1024 µM (≈ 420 µg/mL); in assay [10], 256 µM (≈ 105 µg/mL). Besides, the MIC against F. solani (KCTC 6326) is on record as 256 µM (≈ 105 µg/mL); in assay [11] it was 512 µM (≈ 210 µg/mL); in [12], 256 µM (≈ 105 µg/mL); in assay [13] it was 1024 µM (≈ 420 µg/mL).

For `NCCCC[C@H](NC(=O)[C@H](CCCCN)NC(=O)[C@H](Cc1c[nH]cn1)NC(=O)[C@H](CCCCN)NC(=O)[C@H](CCCCN)NC(=O)[C@@H](N)Cc1c[nH]cn1)C(N)=O` [(HKK)2] (H-HKKHKK-NH2), the MIC (in [1]; in assay [2]; in the assay with C. albicans (KCTC 7270); in assay [3]; in [4]; in [5]) was 64 µM (≈ 51.5 µg/mL) throughout. The MIC in assay [6] came out at 64 µM (≈ 51.5 µg/mL); in assay [7], 64 µM (≈ 51.5 µg/mL); in [8], 64 µM (≈ 51.5 µg/mL); in the assay with C. krusei (CCARM 14017), 64 µM (≈ 51.5 µg/mL); in assay [9], 16 µM (≈ 12.9 µg/mL); in [10], 32 µM (≈ 25.7 µg/mL). The MIC amounted to 32 µM (≈ 25.7 µg/mL) in the assay with F. solani (KCTC 6326), 32 µM (≈ 25.7 µg/mL) in [11], 64 µM (≈ 51.5 µg/mL) in assay [12] and 64 µM (≈ 51.5 µg/mL) in assay [13].

As for `NCCCC[C@H](NC(=O)[C@H](CCCCN)NC(=O)[C@H](Cc1c[nH]cn1)NC(=O)[C@H](CCCCN)NC(=O)[C@H](CCCCN)NC(=O)[C@H](Cc1c[nH]cn1)NC(=O)[C@H](CCCCN)NC(=O)[C@H](CCCCN)NC(=O)[C@@H](N)Cc1c[nH]cn1)C(N)=O` [(HKK)3] (H-HKKHKKHKK-NH2), the MIC is 64 µM (≈ 76.6 µg/mL) in [1]; 64 µM (≈ 76.6 µg/mL) in assay [2]; 64 µM (≈ 76.6 µg/mL) in the assay with C. albicans (KCTC 7270); 64 µM (≈ 76.6 µg/mL) in assay [3]; 32 µM (≈ 38.3 µg/mL) in [4]; 16 µM (≈ 19.2 µg/mL) in assay [5]. Moreover, the MIC in [6] worked out at 32 µM (≈ 38.3 µg/mL); in assay [7] it was 16 µM (≈ 19.2 µg/mL); in [8] it was 64 µM (≈ 76.6 µg/mL); with C. krusei (CCARM 14017), 16 µM (≈ 19.2 µg/mL); in [9], 8 µM (≈ 9.58 µg/mL); in assay [10], 16 µM (≈ 19.2 µg/mL). Also, the MIC was found to be 16 µM (≈ 19.2 µg/mL) in the assay with F. solani (KCTC 6326), 16 µM (≈ 19.2 µg/mL) in [11], 32 µM (≈ 38.3 µg/mL) in assay [12] and 32 µM (≈ 38.3 µg/mL) in assay [13].

For `NCCCC[C@H](NC(=O)[C@H](CCCCN)NC(=O)[C@H](Cc1c[nH]cn1)NC(=O)[C@H](CCCCN)NC(=O)[C@H](CCCCN)NC(=O)[C@H](Cc1c[nH]cn1)NC(=O)[C@H](CCCCN)NC(=O)[C@H](CCCCN)NC(=O)[C@H](Cc1c[nH]cn1)NC(=O)[C@H](CCCCN)NC(=O)[C@H](CCCCN)NC(=O)[C@@H](N)Cc1c[nH]cn1)C(N)=O` [(HKK)4] (H-HKKHKKHKKHKK-NH2), the MIC came out at 32 µM (≈ 50.9 µg/mL) in [1]; 32 µM (≈ 50.9 µg/mL) in assay [2]; 32 µM (≈ 50.9 µg/mL) against C. albicans (KCTC 7270); 32 µM (≈ 50.9 µg/mL) in [3]; 16 µM (≈ 25.5 µg/mL) in [4]; 8 µM (≈ 12.7 µg/mL) in assay [5]. Also, the MIC in assay [6] was found to be 16 µM (≈ 25.5 µg/mL); in assay [7], 4 µM (≈ 6.36 µg/mL); in assay [8], 32 µM (≈ 50.9 µg/mL); in the assay with C. krusei (CCARM 14017) it was 4 µM (≈ 6.36 µg/mL); in [9], 2 µM (≈ 3.18 µg/mL); in [10] it was 4 µM (≈ 6.36 µg/mL). Moreover, the MIC came to 4 µM (≈ 6.36 µg/mL) with F. solani (KCTC 6326), 16 µM (≈ 25.5 µg/mL) in assay [11], 4 µM (≈ 6.36 µg/mL) in [12] and 32 µM (≈ 50.9 µg/mL) in [13].

Consider `NCCCC[C@H](NC(=O)[C@H](CCCCN)NC(=O)[C@H](Cc1c[nH]cn1)NC(=O)[C@H](CCCCN)NC(=O)[C@H](CCCCN)NC(=O)[C@H](Cc1c[nH]cn1)NC(=O)[C@H](CCCCN)NC(=O)[C@H](CCCCN)NC(=O)[C@H](Cc1c[nH]cn1)NC(=O)[C@H](CCCCN)NC(=O)[C@H](CCCCN)NC(=O)[C@H](Cc1c[nH]cn1)NC(=O)[C@H](CCCCN)NC(=O)[C@H](CCCCN)NC(=O)[C@H](Cc1c[nH]cn1)NC(=O)[C@H](CCCCN)NC(=O)[C@H](CCCCN)NC(=O)[C@@H](N)Cc1c[nH]cn1)C(N)=O` [(HKK)6] (H-HKKHKKHKKHKKHKKHKK-NH2), for which the minimal inhibitory concentration (MIC) in [1] worked out at 16 µM (≈ 38 µg/mL); in assay [2], 16 µM (≈ 38 µg/mL); in the assay with C. albicans (KCTC 7270), 16 µM (≈ 38 µg/mL); in [3], 16 µM (≈ 38 µg/mL); in assay [4], 8 µM (≈ 19 µg/mL); in assay [5], 4 µM (≈ 9.51 µg/mL). The MIC was 8 µM (≈ 19 µg/mL) in assay [6]; 2 µM (≈ 4.76 µg/mL) in [7]; 16 µM (≈ 38 µg/mL) in [8]; 4 µM (≈ 9.51 µg/mL) in the assay with C. krusei (CCARM 14017); 1 µM (≈ 2.38 µg/mL) in assay [9]; 2 µM (≈ 4.76 µg/mL) in [10]. In addition, the MIC came out at 2 µM (≈ 4.76 µg/mL) against F. solani (KCTC 6326), 8 µM (≈ 19 µg/mL) in assay [11], 2 µM (≈ 4.76 µg/mL) in assay [12] and 16 µM (≈ 38 µg/mL) in assay [13].

With `NCCCC[C@H](NC(=O)[C@H](CCCCN)NC(=O)[C@H](Cc1c[nH]cn1)NC(=O)[C@H](CCCCN)NC(=O)[C@H](CCCCN)NC(=O)[C@H](Cc1c[nH]cn1)NC(=O)[C@H](CCCCN)NC(=O)[C@H](CCCCN)NC(=O)[C@H](Cc1c[nH]cn1)NC(=O)[C@H](CCCCN)NC(=O)[C@H](CCCCN)NC(=O)[C@H](Cc1c[nH]cn1)NC(=O)[C@H](CCCCN)NC(=O)[C@H](CCCCN)NC(=O)[C@H](Cc1c[nH]cn1)NC(=O)[C@H](CCCCN)NC(=O)[C@H](CCCCN)NC(=O)[C@H](Cc1c[nH]cn1)NC(=O)[C@H](CCCCN)NC(=O)[C@H](CCCCN)NC(=O)[C@H](Cc1c[nH]cn1)NC(=O)[C@H](CCCCN)NC(=O)[C@H](CCCCN)NC(=O)[C@@H](N)Cc1c[nH]cn1)C(N)=O` [(HKK)8] (H-HKKHKKHKKHKKHKKHKKHKKHKK-NH2), the MIC in [1] came out at 8 µM (≈ 25.3 µg/mL); in [2], 8 µM (≈ 25.3 µg/mL); in the assay on C. albicans (KCTC 7270), 8 µM (≈ 25.3 µg/mL); in [3], 8 µM (≈ 25.3 µg/mL); in [4], 4 µM (≈ 12.7 µg/mL); in [5] it was 2 µM (≈ 6.33 µg/mL). Moreover, the MIC in assay [6] is recorded as 2 µM (≈ 6.33 µg/mL); in [7], 1 µM (≈ 3.16 µg/mL); in assay [8], 8 µM (≈ 25.3 µg/mL); against C. krusei (CCARM 14017), 4 µM (≈ 12.7 µg/mL); in [9] it was 1 µM (≈ 3.16 µg/mL); in assay [10] it was 2 µM (≈ 6.33 µg/mL). In addition, the minimal inhibitory concentration (MIC) in the assay on F. solani (KCTC 6326) turned out to be 1 µM (≈ 3.16 µg/mL); in assay [11] it was 4 µM (≈ 12.7 µg/mL); in assay [12] it was 2 µM (≈ 6.33 µg/mL); in assay [13] it was 8 µM (≈ 25.3 µg/mL).

For the origin of these results see paper PMC6321124, “Hydrophilic Linear Peptide with Histidine and Lysine Residues as a Key Factor Affecting Antifungal Activity” (International Journal of Molecular Sciences, 2018).
